Experimental findings from patent US11739100B2, “2,3-dihydro-1h-imidazo{1,2-a}pyrimidin-5-one and this 1,2,3,4-tetrahydropyrimido{1,2-a}pyrimidin-6-one derivatives comprising a substituted morpholine, preparation thereof and pharmaceutical use thereof” (SANOFI, priority 2012, dated 2023) are described below.

Structures are written as SMILES.

The target in this test is T1, recombinant Vps34 (Homo sapiens, UniProt Q8NEB9).
T1 construct: purchased Invitrogen PV5126
T1 sequence (Q8NEB9 whole entry): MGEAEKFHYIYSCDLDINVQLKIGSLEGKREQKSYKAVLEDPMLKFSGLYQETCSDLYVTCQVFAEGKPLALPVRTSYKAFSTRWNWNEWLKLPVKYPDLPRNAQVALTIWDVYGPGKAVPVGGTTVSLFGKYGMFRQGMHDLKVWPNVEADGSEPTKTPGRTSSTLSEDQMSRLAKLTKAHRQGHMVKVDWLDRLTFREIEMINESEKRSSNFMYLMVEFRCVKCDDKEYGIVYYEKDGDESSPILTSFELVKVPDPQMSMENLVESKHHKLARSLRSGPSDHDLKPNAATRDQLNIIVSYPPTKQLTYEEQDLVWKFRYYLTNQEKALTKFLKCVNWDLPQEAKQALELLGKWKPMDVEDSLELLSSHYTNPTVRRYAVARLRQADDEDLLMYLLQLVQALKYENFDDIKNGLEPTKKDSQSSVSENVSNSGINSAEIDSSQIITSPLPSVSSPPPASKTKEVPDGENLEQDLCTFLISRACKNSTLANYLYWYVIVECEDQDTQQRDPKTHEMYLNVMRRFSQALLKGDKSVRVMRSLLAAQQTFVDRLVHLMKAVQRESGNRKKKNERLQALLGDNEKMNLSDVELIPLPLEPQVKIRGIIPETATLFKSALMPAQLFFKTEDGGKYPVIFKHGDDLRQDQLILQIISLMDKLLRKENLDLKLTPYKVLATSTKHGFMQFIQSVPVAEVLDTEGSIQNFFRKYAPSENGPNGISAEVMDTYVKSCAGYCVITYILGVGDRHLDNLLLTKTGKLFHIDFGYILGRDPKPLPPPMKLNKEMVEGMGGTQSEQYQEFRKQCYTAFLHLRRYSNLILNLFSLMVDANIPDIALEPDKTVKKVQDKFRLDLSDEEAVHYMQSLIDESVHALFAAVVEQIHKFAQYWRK
The experiment in a line: Phosphorylation of phosphatidylinositol (PI) by Vps34 in vitro, ADP detected by TR-FRET (HTRF Transcreener ADP). The test is classed as biochemical. As to conditions: 10 μM ATP, 55 μg/ml PI, approximately 3 nM Vps34, 1 hour at ambient temperature; absolute IC50, mean of two independent experiments; read-out: IC50 activity range. (In general: TR-FRET usually uses a lanthanide donor and a delayed reading to cut background.)
One may read the IC50 as the concentration that gives 50% inhibition. Regarding `C[C@@H]1COCCN1c1nc2n(c(=O)c1F)CC[C@@H](C(F)(F)F)N2Cc1ccno1` [Example 46, (S)-3-Fluoro-9-isoxazol-5-ylmethyl-2-((R)-3-methyl-morpholin-4-yl)-8-trifluoromethyl-6,7,8,9-tetrahydro-pyrimido[1,2-a]-pyrimidin-4-one], the IC50 was under 0.01 µM.
For the compound `C[C@@H]1COCCN1c1nc2n(c(=O)c1F)CC[C@@H](C(F)(F)F)N2c1cccnc1` [Example 47, (S)-3-Fluoro-2-((R)-3-methylmorpholin-4-yl)-9-pyridin-3-yl-8-trifluoromethyl-6,7,8,9-tetrahydro-pyrimido[1,2-a]-pyrimidin-4-one], the IC50 was in the range of 0.01 to 0.1 µM.
In the case of `C[C@@H]1COCCN1c1nc2n(c(=O)c1F)CC[C@@H](C(F)(F)F)N2CCOCC(F)(F)F` [Example 48, (S)-3-Fluoro-2-((R)-3-methylmorpholin-4-yl)-9-[2-(2,2,2-trifluoro-ethoxy)ethyl]-8-trifluoromethyl-6,7,8,9-tetrahydro-pyrimido[1,2-a]-pyrimidin-4-one], the IC50 is under 0.01 µM.
As for `C[C@@H]1COCCN1c1nc2n(c(=O)c1F)CC[C@@H](C(F)(F)F)N2CC(C)(C)O` [Example 49, (S)-3-Fluoro-9-(2-hydroxy-2-methyl-propyl)-2-((R)-3-methylmorpholin-4-yl)-8-trifluoromethyl-6,7,8,9-tetrahydro-pyrimido[1,2-a]-pyrimidin-4-one], the IC50 is under 0.01 µM.
For `C[C@@H]1COCCN1c1nc2n(c(=O)c1F)CC[C@@H](C(F)(F)F)N2CC(=O)c1cccnc1` [Example 50, (S)-3-Fluoro-2-((R)-3-methylmorpholin-4-yl)-9-(2-oxo-2-pyridin-3-ylethyl)-8-trifluoromethyl-6,7,8,9-tetrahydro-pyrimido[1,2-a]-pyrimidin-4-one], the IC50 is under 0.01 µM.
Consider `C[C@@H]1COCCN1c1nc2n(c(=O)c1F)CC[C@@H](C(F)(F)F)N2Cc1ccc(F)nc1` [Example 51, (S)-3-Fluoro-9-(6-fluoropyridin-3-yl-methyl)-2-((R)-3-methylmorpholin-4-yl)-8-trifluoromethyl-6,7,8,9-tetrahydro-pyrimido[1,2-a]-pyrimidin-4-one], for which the IC50 is under 0.01 µM.
`C[C@@H]1COCCN1c1nc2n(c(=O)c1F)CC[C@@H](C(F)(F)F)N2Cc1ccc(Cl)nc1` [Example 52, (S)-9-(6-Chloro-pyridin-3-ylmethyl)-3-fluoro-2-((R)-3-methyl-morpholin-4-yl)-8-trifluoromethyl-6,7,8,9-tetrahydro-pyrimido[1,2-a]-pyrimidin-4-one]: the IC50 is under 0.01 µM.
On to `C[C@@H]1COCCN1c1nc2n(c(=O)c1F)CC[C@@H](C(F)(F)F)N2c1ccc(C(F)F)nc1` [Example 53, (S)-9-(6-Difluoromethylpyridin-3-yl)-3-fluoro-2-((R)-3-methylmorpholin-4-yl)-8-trifluoromethyl-6,7,8,9-tetrahydro-pyrimido[1,2-a]-pyrimidin-4-one], for which the IC50 is under 0.01 µM.
On to `C[C@@H]1COCCN1c1nc2n(c(=O)c1F)CC[C@@H](C(F)(F)F)N2Cc1noc(C(C)(C)C)n1` [Example 54, (S)-9-(5-tert-Butyl-[1,2,4]oxadiazol-3-yl-methyl)-3-fluoro-2-((R)-3-methyl-morpholin-4-yl)-8-trifluoromethyl-6,7,8,9-tetrahydro-pyrimido[1,2-a]-pyrimidin-4-one], for which the IC50 is under 0.01 µM.
As for `C[C@@H]1COCCN1c1nc2n(c(=O)c1F)CC[C@@H](C(F)(F)F)N2c1ccncc1` [Example 55, (S)-3-Fluoro-2-((R)-3-methylmorpholin-4-yl)-9-pyridin-4-yl-8-trifluoromethyl-6,7,8,9-tetrahydro-pyrimido[1,2-a]-pyrimidin-4-one], the IC50 was under 0.01 µM.
Take `C[C@@H]1COCCN1c1nc2n(c(=O)c1F)CC[C@@H](C(F)(F)F)N2Cc1ccc(F)cn1` [Example 56, (S)-3-Fluoro-9-(5-fluoropyridin-2-yl-methyl)-2-((R)-3-methylmorpholin-4-yl)-8-trifluoromethyl-6,7,8,9-tetrahydro-pyrimido[1,2-a]-pyrimidin-4-one]: the IC50 is under 0.01 µM.
As for `C[C@@H]1COCCN1c1nc2n(c(=O)c1F)CC[C@@H](C(F)(F)F)N2Cc1cncc(F)c1` [Example 57, (S)-3-Fluoro-9-(5-fluoropyridin-3-yl-methyl)-2-((R)-3-methylmorpholin-4-yl)-8-trifluoromethyl-6,7,8,9-tetrahydro-pyrimido[1,2-a]-pyrimidin-4-one], the IC50 was under 0.01 µM.
Consider `C[C@@H]1COCCN1c1nc2n(c(=O)c1F)CC[C@@H](C(F)(F)F)N2Cc1cccnc1F` [Example 58, (S)-3-Fluoro-9-(2-fluoropyridin-3-yl-methyl)-2-((R)-3-methylmorpholin-4-yl)-8-trifluoromethyl-6,7,8,9-tetrahydro-pyrimido[1,2-a]-pyrimidin-4-one], for which the IC50 was under 0.01 µM.
Take `C[C@@H]1COCCN1c1nc2n(c(=O)c1F)CC[C@@H](C(F)(F)F)N2CC(=O)c1ncccc1F` [Example 59, (S)-3-Fluoro-9-[2-(3-fluoropyridin-2-yl)-2-oxoethyl]-2-((R)-3-methylmorpholin-4-yl)-8-trifluoromethyl-6,7,8,9-tetrahydro-pyrimido[1,2-a]-pyrimidin-4-one]: the IC50 is under 0.01 µM.
Consider `C[C@@H]1COCCN1c1cc(=O)n2c(n1)N(CC(=O)c1ncccc1F)[C@H](C(F)(F)F)CC2` [Example 60, (S)-9-[2-(3-Fluoro-pyridin-2-yl)-2-oxo-ethyl]-2-((R)-3-methyl-morpholin-4-yl)-8-trifluoromethyl-6,7,8,9-tetrahydro-pyrimido[1,2-a]-pyrimidin-4-one], for which the IC50 is under 0.01 µM.
The figure for `COc1cc(C(=O)CN2c3nc(N4CCOC[C@H]4C)cc(=O)n3CC[C@H]2C(F)(F)F)ccn1` [Example 61, (S)-9-[2-(2-Methoxy-pyridin-4-yl)-2-oxo-ethyl]-2-((R)-3-methyl-morpholin-4-yl)-8-trifluoromethyl-6,7,8,9-tetrahydro-pyrimido[1,2-a]-pyrimidin-4-one] is under 0.01 µM.
As for `Cc1nocc1CN1c2nc(N3CCOC[C@H]3C)c(F)c(=O)n2CC[C@H]1C(F)(F)F` [Example 62, (S)-3-Fluoro-9-(3-methylisoxazol-4-yl-methyl)-2-((R)-3-methylmorpholin-4-yl)-8-trifluoromethyl-6,7,8,9-tetrahydro-pyrimido[1,2-a]-pyrimidin-4-one], the figure is under 0.01 µM; as for `C[C@@H]1COCCN1c1cc(=O)n2c(n1)N(CC(=O)c1cccc(F)n1)[C@H](C(F)(F)F)CC2` [Example 63, (S)-9-[2-(6-Fluoro-pyridin-2-yl)-2-oxo-ethyl]-2-((R)-3-methyl-morpholin-4-yl)-8-trifluoromethyl-6,7,8,9-tetrahydro-pyrimido[1,2-a]-pyrimidin-4-one], under 0.01 µM; as for `C[C@@H]1COCCN1c1cc(=O)n2c(n1)N(Cc1cn3ccccc3n1)[C@H](C(F)(F)F)CC2` [Example 64, (S)-9-Imidazo[1,2-a]-pyridin-2-ylmethyl-2-((R)-3-methyl-morpholin-4-yl)-8-trifluoromethyl-6,7,8,9-tetrahydro-pyrimido[1,2-a]-pyrimidin-4-one], over 0.1 µM.
Take `C[C@@H]1COCCN1c1cc(=O)n2c(n1)N(Cc1cc(Cl)ccn1)[C@H](C(F)(F)F)CC2` [Example 65, (S)-9-(4-Chloro-pyridin-2-ylmethyl)-2-((R)-3-methyl-mopholin-4-yl)-8-trifluoromethyl-6,7,8,9-tetrahydro-pyrimido[1,2-a]-pyrimidin-4-one]: the IC50 was under 0.01 µM.
`C[C@@H]1COCCN1c1cc(=O)n2c(n1)N(Cc1ccncc1Cl)[C@H](C(F)(F)F)CC2` [Example 66, (S)-9-(3-Chloro-pyridin-4-ylmethyl)-2-((R)-3-methyl-mopholin-4-yl)-8-trifluoromethyl-6,7,8,9-tetrahydro-pyrimido[1,2-a]-pyrimidin-4-one]: the IC50 was under 0.01 µM.
For the compound `C[C@@H]1COCCN1c1cc(=O)n2c(n1)N(CC(=O)Cc1ccccn1)[C@H](C(F)(F)F)CC2` [Example 67, (S)-2-((R)-3-Methyl-morpholin-4-yl)-9-(2-oxo-3-pyridin-2-yl-propyl)-8-trifluoromethyl-6,7,8,9-tetrahydro-pyrimido[1,2-a]-pyrimidin-4-one], the IC50 is under 0.01 µM.
In the case of `C[C@@H]1COCCN1c1nc2n(c(=O)c1F)CC[C@@H](C(F)(F)F)N2CC(=O)c1nccs1` [Example 68, (S)-3-Fluoro-2-((R)-3-methylmorpholin-4-yl)-9-(2-oxo-2-thiazol-2-yl-ethyl)-8-trifluoromethyl-6,7,8,9-tetrahydro-pyrimido[1,2-a]-pyrimidin-4-one], the IC50 was under 0.01 µM.
For the compound `C[C@@H]1COCCN1c1nc2n(c(=O)c1F)CC[C@@H](C(F)(F)F)N2Cc1cscn1` [Example 69, (S)-3-Fluoro-2-((R)-3-methylmorpholin-4-yl)-9-thiazol-4-ylmethyl-8-trifluoromethyl-6,7,8,9-tetrahydro-pyrimido[1,2-a]-pyrimidin-4-one], the IC50 was under 0.01 µM.
The figure for `C[C@@H]1COCCN1c1cc(=O)n2c(n1)N(CC(=O)c1ccc(F)cn1)[C@H](C(F)(F)F)CC2` [Example 70, (S)-9-[2-(5-Fluoro-pyridin-2-yl)-2-oxo-ethyl]-2-((R)-3-methyl-morpholin-4-yl)-8-trifluoromethyl-6,7,8,9-tetrahydro-pyrimido[1,2-a]-pyrimidin-4-one] is under 0.01 µM.
For `C[C@@H]1COCCN1c1nc2n(c(=O)c1F)CCC(C)(C)N2CC(=O)c1ccccn1` [Example 71, 3-Fluoro-8,8-dimethyl-2-((R)-3-methyl-morpholin-4-yl)-9-(2-oxo-2-pyridin-2-yl-ethyl)-6,7,8,9-tetrahydro-pyrimido[1,2-a]-pyrimidin-4-one], the IC50 is under 0.01 µM.
Regarding `C[C@@H]1COCCN1c1cc(=O)n2c(n1)N(Cc1ccnn1C(F)F)C(C)(C)CC2` [Example 72, 9-(2-Difluoromethyl-2H-pyrazol-3-yl-methyl)-8,8-dimethyl-2-((R)-3-methyl-morpholin-4-yl)-6,7,8,9-tetrahydro-pyrimido[1,2-a]-pyrimidin-4-one], the IC50 fell in the range of 0.01 to 0.1 µM.
